# Experimental data: patent US9675592B2, “Methods and compositions for bacteria infections” (priority 2013, dated 2017)
# Where two headings read alike, the source gives them in different places.
# Assays:
# [1] = system: test strain 923 pPvra-lux (USA300 MRSA); test: Primary screen, relative growth in presence of oxacillin; conditions: compound 10 μM with oxacillin 2 μg/mL, absorbance 24 h, <0.50 = dead cells = hit
# [2] = system: test strain 923 pPvra-lux; test: Secondary screen / synergy confirmation of Top 40, relative growth with oxacillin; type: cell-based, Staphylococcus aureus; conditions: Top 40 library, compound at maximum non-GI conc
# Description: In the secondary screen each microtiter plate contained either cells in TSB alone (16 replicates), cells with oxacillin (2 μg/mL, 31 replicates), or cells with test compound and oxacillin (2 μg/mL, 49 wells). Each compound was assayed in four separate biological replicates.
# Synergy Confirmation of “Top 40”. […]
# [3] = system: vraSR promoter (Pvra-lux reporter in strain 923); test: Primary screen, relative luminescence (vraSR expression)
# [4] = system: test strain (923 pPvra-lux); test: Growth inhibition by compound alone (maximum non-growth-inhibitory concentration); type: cell-based, Staphylococcus aureus; conditions: for maximum non-GI conc: compound alone, maximum concentration where it did NOT inhibit growth
# [5] = system: vraSR promoter (Pvra-lux reporter in strain 923); type: cell-based, Staphylococcus aureus; conditions: for RL Ox avg: Top 40 library, with oxacillin, compound at maximum non-GI conc; for vraSR repressing synergist: overall class from syn and rep
# Description: In the secondary screen each microtiter plate contained either cells in TSB alone (16 replicates), cells with oxacillin (2 μg/mL, 31 replicates), or cells with test compound and oxacillin (2 μg/mL, 49 wells). Each compound was assayed in four separate biological replicates. […]
# [6] = primary screen, compound 10 μM with oxacillin 2 μg/mL, <0.50 = vraSR repressed = hit
Structure (SMILES),RG avg (relative growth) [1],RG Ox avg [2],"RL avg (relative luminescence) [3, 6]",maximum non-GI conc [4],RL Ox avg [5],vraSR repressing synergist [5],RL avg (relative luminescence) [3],"concentration ([4]; compound tested alone, concentration where it did NOT inhibit growth (subinhibitory), Top 40 leads after secondary screen)"
O=C(Nc1ccccc1-c1nc2ccccc2[nH]1)c1ccccc1Br [F0015-0758],−0.06,0.92,0.33,400 µg/mL,0.25,3. no effect,–,–
O=C(Nc1nc(-c2ccccn2)cs1)c1ccc(Br)s1 [F0447-0273],−0.08,0.39,−0.09,40 µg/mL,0.08,1. confirmed,–,–
Cc1ccc(C)c2sc(NC(=O)c3cccs3)nc12 [F0600-1305],0.36,0.94,0.22,400 µg/mL,0.15,3. no effect,–,–
O=C(Nc1nnc(C2=COCCO2)o1)c1cccc(Br)c1 [F0608-0146],−0.05,0.96,−0.12,40 µg/mL,1.11,3. no effect,–,–
CC1CC1c1ccc(CCC(=O)Nc2ccc(Cl)c(Cl)c2)o1 (stereo not shown) [F1118-0378],0.01,1.00,0.42,40 µg/mL,0.65,3. no effect,–,–
Fc1ccc(-c2csc3ncnc(Sc4nnnn4-c4ccccc4)c23)cc1 [F1142-4245],0.03,0.25,0.36,400 µg/mL,0.04,1. confirmed,–,–
Clc1ccc(-c2csc3ncnc(Sc4nnnn4-c4ccccc4)c23)cc1 [F1142-4597],0.03,0.08,0.37,40 µg/mL,−0.01,1. confirmed,–,–
O=C(Nc1nnc(-c2ccccc2Cl)o1)c1ccc2ccccc2c1 [F1374-0082],0.08,0.67,0.35,40 µg/mL,0.08,2. possible,–,–
Cc1ccc(S(=O)(=O)Nc2ccccc2C(=O)Nc2nc3c(Cl)ccc(Cl)c3s2)cc1 [F1813-0710],−0.03,0.69,0.01,400 µg/mL,0.20,2. possible,–,–
Cc1ccc(S(=O)(=O)Nc2ccccc2C(=O)Nc2nc3c(C)ccc(Cl)c3s2)cc1 [F1813-0711],−0.02,0.85,–,400 µg/mL,0.43,2. possible,−0.02,–
CN1CCN(c2nc(Nc3ccc(SC(F)F)cc3)c3cnn(-c4ccccc4)c3n2)CC1 [F2090-0579],0.00,0.30,0.04,400 µg/mL,0.11,1. confirmed,–,–
Cc1ccc(Nc2nc(N3CCN(Cc4ccccc4)CC3)nc3nccnc23)cc1C [F2359-0308],0.22,0.01,0.07,400 µg/mL,0.01,1. confirmed,–,–
O=S(=O)(Nc1cccc(-c2nc3ccccc3s2)c1)c1ccc(Cl)s1 [F2399-0063],0.28,−0.01,0.12,400 µg/mL,0.04,1. confirmed,–,–
CC1CCN(C(C)CNC(=O)Nc2ccc(C(F)(F)F)cc2)CC1 (stereo not shown) [F2438-0002],−0.02,0.95,−0.18,40 µg/mL,0.62,3. no effect,–,–
O=C(Nc1nnc(-c2ccc(OC(F)(F)F)cc2)o1)C1(c2cccs2)CCCC1 [F2517-0863],0.02,0.92,−0.06,4 µg/mL,1.18,3. no effect,–,–
Cc1ccc(-c2nnc(NC(=O)c3ccc(S(=O)(=O)N4CCc5ccccc5C4)cc3)o2)c(C)c1 [F2518-0213],0.01,1.14,−0.01,4 µg/mL,0.33,3. no effect,–,–
COc1ccc(Cl)c2sc(NC(=O)c3ccccc3NS(=O)(=O)c3ccc(F)cc3)nc12 [F2708-0138],0.02,1.04,−0.07,40 µg/mL,0.69,3. no effect,–,4 µg/mL
CSc1cccc2sc(NC(=O)c3ccccc3NS(=O)(=O)c3ccc(C)cc3)nc12 [F2730-0247],0.31,0.23,0.16,400 µg/mL,0.15,1. confirmed,–,–
O=C(CCCSc1ccc(Cl)cc1)Nc1nc(-c2ccccn2)cs1 [F2813-0883],−0.03,1.03,−0.01,40 µg/mL,1.28,3. no effect,–,–
Cc1nnsc1C(=O)Nc1nc(-c2cc3ccccc3o2)cs1 [F2962-0176],0.06,0.04,−0.08,400 µg/mL,0.01,1. confirmed,–,–
OC(c1ccccc1)c1nc2ccccc2n1Cc1ccc(Cl)c(Cl)c1 (stereo not shown) [F3068-0037],−0.02,−0.01,0.05,400 µg/mL,0.11,1. confirmed,–,–
Cc1cc(SCC(=O)Nc2cccc(C(F)(F)F)c2)n2ncc(-c3ccccc3)c2n1 [F3305-0354],0.00,1.01,0.03,40 µg/mL,0.61,3. no effect,–,–
O=C(Nc1nnc(-c2ccc(Br)s2)o1)c1ccc2ncsc2c1 [F5093-111],−0.02,–,−0.02,–,–,–,–,–
COc1cccc2cc(C(=O)Nc3nnc(-c4ccc(Br)s4)o3)oc12 [F5093-196],−0.01,–,−0.01,–,–,–,–,–
COc1ccc(OCc2noc(CNC(=O)Nc3ccc(Cl)c(Cl)c3)n2)cc1 [F5882-3269],−0.01,–,−0.02,–,–,–,–,–
